{
  "source": "patent US10308620B2",
  "about": "“Muscarinic M1 receptor positive allosteric modulators” (SUVEN LIFE SCIENCES LIMITED, priority 2015, dated 2019)",
  "key": {"[1]": {"molecular_target": "recombinant human Muscarinic M1 receptor (Homo sapiens (Human), UniProt P11229)", "sequence (P11229 whole entry)": "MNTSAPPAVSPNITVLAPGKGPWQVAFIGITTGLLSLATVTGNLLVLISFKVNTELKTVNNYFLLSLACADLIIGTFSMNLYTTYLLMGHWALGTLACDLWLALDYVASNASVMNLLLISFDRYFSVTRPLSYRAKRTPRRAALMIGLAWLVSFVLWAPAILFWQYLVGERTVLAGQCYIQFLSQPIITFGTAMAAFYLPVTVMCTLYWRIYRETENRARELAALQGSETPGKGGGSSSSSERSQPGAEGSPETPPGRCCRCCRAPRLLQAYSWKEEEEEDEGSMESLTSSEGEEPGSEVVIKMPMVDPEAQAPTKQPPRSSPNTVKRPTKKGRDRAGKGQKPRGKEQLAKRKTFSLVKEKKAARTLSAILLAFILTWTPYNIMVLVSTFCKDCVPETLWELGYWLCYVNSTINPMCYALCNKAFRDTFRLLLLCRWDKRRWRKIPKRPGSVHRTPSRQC", "assay": "Allosteric potency EC50, CHO cells with pCRE-Luc reporter, in presence of EC20 of acetylcholine", "type": "cell-based", "settings": "4 hours", "in_short": "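Stable CHO cells carrying human M1 receptor and a pCRE-Luc reporter, serum-starved overnight, then exposed to rising compound concentrations plus EC20 acetylcholine in OptiMEM for 4 h at 37 °C. Luciferase read after lysis. EC50 is the concentration giving 50% luciferase stimulation with EC20 acetylcholine present.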"}, "[2]": {"tested_on": "Male Wistar rats", "assay": "Object recognition task model (time induced memory deficit)", "type": "in vivo, rat", "experimental": "Object Recognition Task Model\nThe cognition enhancing properties of compounds of this invention were estimated by using this model.\nMale Wistar rats (8-10 weeks old) were used as experimental animals. Four animals were housed in each cage. Animals were kept on 20% food deprivation from a day prior to experimentation. Water was provided ad libitum throughout the experiment. Animals were maintained on a 12 hours light/dark cycle in temperature and humidity controlled room. The experiment was carried out in an open field made up of acrylic. Rats were habituated to individual arenas (open field) for 1 hour in the absence of any objects on day 1.\nOne group of 12 rats received vehicle and another set of animals received test compounds or test compounds and Donepezil, before the familiar (T1) and choice (T2) trials. During the familiarization phase, (T1), the rats were placed individually in the arena for 3 minutes, in which two identical objects (a1 and a2) were positioned 10 cm from the wall. 24 hours after T1, trial for long-term memory test was performed. The same rats were placed in the same arena as they were placed in T1 trial. During the choice phase (T2) rats were allowed to explore the arena for 3 minutes in presence of a copy of familiar object (a3) and one novel object (b). During the T1 and T2 trial, explorations of each object (defined as sniffing, licking, chewing or having moving vibrissae whilst directing the nose towards the object at a distance of less than 1 cm) were recorded using stopwatch.\nT1 is the total time spent exploring the familiar objects (a1+a2).\nT2 is the total time spent exploring the familiar object and novel object (a3+b). Discriminative index=Time spent with novel object/(time spent with novel and familiar object).\nThe object recognition test was performed as described in Behavioural Brain Research, 1988, 31, 47-59."}, "[3]": {"tested_on": "soluble amyloid precursor protein α (sAPPα)", "assay": "Cortical sAPPα levels in rat brain (ELISA)", "type": "in vivo", "settings": "male Wistar rats, 10 mg/kg, i.p., sixty minutes post treatment; FIG. 5", "experimental": "Modulation of Soluble Amyloid Precursor Protein α (sAPPα) Levels in Cortex\nEstimation of Cortical sAPPα Levels in Rat Brain\nMale Wistar rats (250±40 grams) were randomly divided (n=8 group) into different treatment groups. Control group of rats were intraperitoneally (i.p.) administered with vehicle (99.75% of 0.25% HEC HHX+0.25% tween 80). Rats from treatment groups received a single intraperitoneal injection of test compound (dose volume of 2 mL/kg). Rats were sacrificed by cervical dislocation at 60 minutes after administration of test compound. Brains were quickly isolated and the cortex was dissected at −20° C. The cortex was immediately kept on a dry ice and weighed before being stored at −80° C. until quantification of sAPPα using Enzyme-linked immunosorbent assay (ELISA).\n• 1. […]\nTo investigate the role of an acute treatment of test compound on sAPPα levels, the expression of this protein was measured in homogenates obtained from the cortex of treated and untreated rats by employing ELISA assay. […]\nStatistical analyses were performed using the Graph Pad Prism (Version 4). Results are expressed as Mean±SEM levels of sAPPα expressed as percentage of control values (rats treated with vehicle). Statistical significance after treatment was assessed using One-Way ANOVA followed by Dunnett's post test and the significance level was set below p value less than 0.05."}, "[4]": {"tested_on": "rats", "assay": "Contextual fear conditioning task (scopolamine induced memory deficit)", "type": "in vivo, rat", "settings": "scopolamine 0.3 mg/kg, s.c.; FIG. 3", "experimental": "Contextual Fear Conditioning Task\nExperiment was carried out over a period of two days. On day 1, rats were placed in the operant behavior chamber and allowed to acclimatize for 2 minutes. Rats received an unavoidable foot shock (unconditioned stimulus (US): electric shock of 0.5-0.7 mA for 3 sec). Following a 1 minute interval, shocks were repeated to deliver a total of three US. Rats were administered with vehicle or test compound post training. Scopolamine (0.3 mg/kg, s.c.) was administered 120 minutes after training.\nOn day 2, rats were placed in the operant behavior chamber and total freezing time was scored for a period of 5 minutes."}, "[5]": {"settings": "1 mg/kg, p.o., choice trial 24 hours after T1"}},
  "data": [
    {"smiles": "O=C(N[C@H]1CCCC[C@@H]1O)C1=CN(Cc2cccc(F)c2F)c2ccccc2O1", "note": "[Example 18, N-(cis-1S, 2S-2-Hydroxycyclohexyl)-4-(2,3-difluorobenzyl)-4H-benzo[1,4]oxazine-2-carboxamide]", "values": [
      {"measurement": "EC50", "setting": "[1]", "result": 331, "unit": "nM"},
      {"measurement": "Inference", "setting": "[2]; 1 mg/kg, p.o.", "result": "Active"},
      {"measurement": "Exploration time mean ± S.E.M, Familiar object", "setting": "[2]; [5]", "result": "8.74 ± 1.49", "unit": "s"},
      {"measurement": "Exploration time mean ± S.E.M, Novel object", "setting": "[2]; [5]", "result": "16.47 ± 1.82", "unit": "s"},
      {"measurement": "Procognitive effects", "setting": "[2]; in combination with donepezil, FIGS. 1 and 2", "result": "better than the either treatment"},
      {"measurement": "mean maximum increase in cortical sAPPα levels", "setting": "[3]", "result": 26, "unit": "%"},
      {"measurement": "Effect on scopolamine induced memory deficit (freezing time)", "setting": "[4]", "result": "reversed the scopolamine induced memory deficit"}
    ]}
  ]
}
